From ChEMBL document CHEMBL1201862, “PubChem BioAssay data set” (2004)
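1) Cells in 96-well plates. 2) Compound, 48 h, 5 concentrations. 3) Linear interpolation between surrounding doses. 4) Unreached endpoint = highest concentration. GI50 marks 50% less growth.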 Active and inactive are the calls of the source. Cut-off read from the data, not from the text of the source: active = GI50 up to about 1.1 µM and inactive = higher.

How the values were obtained:
Assay in all cases: inhibition of tumour cell growth, NCI panel, 48 h
[1] = system: TK-10
[2] = system: KM12
[3] = system: HT-29
[4] = system: 786-0
[5] = system: SK-MEL-2
[6] = system: EKVX
[7] = system: SK-MEL-5
[8] = system: M14
[9] = system: NCI-H226
[10] = system: HL-60
[11] = system: Hs-578T
[12] = system: K562
[13] = system: UACC-257
[14] = system: COLO 205
[15] = system: PC-3
[16] = system: T47D
[17] = system: ACHN
[18] = system: SN12C
[19] = system: OVCAR-3
[20] = system: SNB-75

| SMILES | GI50 [1] | GI50 [2] | GI50 [3] | GI50 [4] | GI50 [5] | GI50 [6] | GI50 [7] | GI50 [8] | GI50 [9] | GI50 [10] | GI50 [11] | GI50 [12] | GI50 [13] | GI50 [14] | GI50 [15] | GI50 [16] | GI50 [17] | GI50 [18] | GI50 [19] | GI50 [20] |
| --- | --- | --- | --- | --- | --- | --- | --- | --- | --- | --- | --- | --- | --- | --- | --- | --- | --- | --- | --- | --- |
| CC1=C[C@H]([C@H]2C=C(C)C(C(N)=O)=CN2Cc2c(Cl)cccc2Cl)N(Cc2c(Cl)cccc2Cl)C=C1C(N)=O | > 75 µM (inactive) | 55.5 µM (inactive) | > 75 µM (inactive) | > 75 µM (inactive) | > 75 µM (inactive) | > 75 µM (inactive) | > 75 µM (inactive) | > 75 µM (inactive) | > 75 µM (inactive) | > 75 µM (inactive) | > 75 µM (inactive) | > 75 µM (inactive) | 73.8 µM (inactive) | > 75 µM (inactive) | > 75 µM (inactive) | 37 µM (inactive) | > 75 µM (inactive) | > 75 µM (inactive) | > 75 µM (inactive) |  |
| C/C(=N\[N+](C)(C)C)c1ccc(C)c(C)c1 | 45.9 µM (inactive) | 24.9 µM (inactive) | 21.1 µM (inactive) | > 10 µM (inactive) | > 100 µM (inactive) | 7.5 µM (inactive) | 35.7 µM (inactive) | > 10 µM (inactive) |  | 82.2 µM (inactive) | > 10 µM (inactive) | 46.1 µM (inactive) | 0.752 µM (active) | 14.6 µM (inactive) | 36.9 µM (inactive) | > 100 µM (inactive) | > 10 µM (inactive) | 20.4 µM (inactive) | 78.2 µM (inactive) | 53.5 µM (inactive) |
| CCOC(=O)c1sc2nc1CSc1sc(=S)sc1SCc1nc(sc1C(=O)OCC)-c1nc(c(C(=O)OCC)s1)CSc1sc(=S)sc1SCc1nc-2sc1C(=O)OCC | > 10 µM (inactive) | > 10 µM (inactive) | > 10 µM (inactive) | > 10 µM (inactive) | > 10 µM (inactive) | > 10 µM (inactive) | > 10 µM (inactive) |  |  | > 10 µM (inactive) | > 10 µM (inactive) | > 10 µM (inactive) | > 10 µM (inactive) | > 10 µM (inactive) | > 10 µM (inactive) | > 10 µM (inactive) | > 10 µM (inactive) | > 10 µM (inactive) | > 10 µM (inactive) | > 10 µM (inactive) |
| C/C(=N\O)c1ccc(Nc2nc3ccccc3c3occc23)cc1 | 2.9 µM (inactive) | 3.77 µM (inactive) | 1.15 µM (inactive) | 3.8 µM (inactive) | 12.6 µM (inactive) | 21.7 µM (inactive) | 8.51 µM (inactive) | 4.86 µM (inactive) | 2.33 µM (inactive) | 2.29 µM (inactive) | 9.18 µM (inactive) | 2.19 µM (inactive) | 5.12 µM (inactive) | 4.66 µM (inactive) | 10.6 µM (inactive) | 5.45 µM (inactive) | 9.82 µM (inactive) | 13.1 µM (inactive) | 12.4 µM (inactive) |  |
| N#Cc1c(N)nc2[nH]nc(N)c2c1-c1ccc(Cl)cc1 | 2.1 µM (inactive) | 4.12 µM (inactive) | 7.62 µM (inactive) | 7.94 µM (inactive) | 1.88 µM (inactive) | 5.21 µM (inactive) | 3.84 µM (inactive) | 3.33 µM (inactive) | 5.41 µM (inactive) | 9.75 µM (inactive) | 2.5 µM (inactive) | 16.9 µM (inactive) | 11.9 µM (inactive) | 1.48 µM (inactive) | 2.65 µM (inactive) | 1.47 µM (inactive) | 2.49 µM (inactive) | 3.32 µM (inactive) | 2.34 µM (inactive) |  |
| Cc1ccc(/C=C/C(=O)c2c([O-])on[n+]2-c2ccccc2)cc1 | 2.95 µM (inactive) | 2.39 µM (inactive) | 1.9 µM (inactive) | 1.83 µM (inactive) | 2.11 µM (inactive) | 3.6 µM (inactive) | 3.71 µM (inactive) | 2.34 µM (inactive) | 3.79 µM (inactive) | 1.47 µM (inactive) | 2.47 µM (inactive) | 3.68 µM (inactive) | 3.64 µM (inactive) | 2.69 µM (inactive) | 4.72 µM (inactive) | 2.84 µM (inactive) | 1.87 µM (inactive) | 3.79 µM (inactive) | 3.1 µM (inactive) |  |
